The subject of this experiment is herpes simplex labialis. In words: In vivo topical treatment, test group A (four individuals). The arrangement: species or system human. To be noted: common topical medication 5 to 6 times per day. As for the experimental part: Antiviral performance of the composition of the present invention was evaluated in vivo. The test group A consisted of four individuals suffering from herpes simplex labialis. […] As infections were untreated, the individuals were normally healing in between 7 to 10 days. The time from initiation of the symptoms to when the patients experienced relief of pain from the affected area was between 5 to 7 days. […] The time from initiation of the symptoms to time when the patients experienced relief of pain from the affected area was 3 to 5 days.
The herpes infections of test group were treated topically with a composition containing the polyamine polymer silver complex of the present invention with the following results. The composition was applied topically to the affected areas to cover the cold sores with a coating of the composition two times a day. The time from initiation of the cold sores and treatment with the composition to complete healing averaged between about 2 to 3 days. The time from the initiation of the treatment to when the patients experienced relief of pain from the affected area was about 10 to 15 minutes after the first application.

Consider `Nc1nc2c(ncn2COCCO)c(=O)[nH]1` [acyclovir], for which the “time from initiation of the symptoms to relief of pain from the affected area” value lay in the range of 3 to 5 days and the time to healing is given as 5 to 7 days.

(Values after patent publication US20200276107A1, “Treatment of herpes simplex symptoms on skin and mucous membrane of mammals” (priority 2017, published 2020).)
